Broadly, the AC50 is the midpoint of the concentration-response curve, whichever way the signal moves.

Activity calls are given as the source filed them.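 How the source made its calls: active means compounds raising the signal whose fitted half-maximal concentration is at or below their top tested dose (cut at about 25 µM in these data); inconclusive means flat fit at 30 to 70% activity, or a poor fit; inactive means the rest.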

The assay concerns INS-1E rat beta cells, no cytokines, CellTiter-Glo ATP, 48 h. The assay can be described thus: ATP level change in INS-1E without cytokines, dose response, counter-screen for beta-cell apoptosis protection project, INS-1E rat cells, ATP luminescence, cherry pick (AID 463229). In general terms: A counterscreen serves to expose hits that act by an unwanted route or on another target.
Take `Cc1ccc2[nH]c3c(N4CCc5ccccc5C4)ncnc3c2c1`: the concentration at half-maximal activity (AC50) is 2.58 µM. Consider `Cc1ccc(C)n1-c1ccc(C(=O)Nc2ccccc2)cc1`, for which the AC50 is > 26 µM (inactive). Under `COc1cccc(C(NC(C)=O)c2ccc3cccnc3c2O)c1` (stereo not drawn) stands 3.78 µM; under `O=C(Nc1ccc(N2CCN(Cc3ccccc3Cl)CC2)cc1)c1cccnc1`, 5.98 µM. For the compound `CCNC(=O)Nc1cc(S(=O)(=O)Nc2ccc(OC)cc2)ccc1N1CCOCC1`, the half-maximal activity concentration (AC50) was 6.84 µM. `COc1ccc(C(=O)NN/C(C)=C/C(=O)C(F)(F)C(F)(F)C(F)(F)F)cc1`: the AC50 is > 26 µM (inactive).

On to `NNc1nc(-c2ccccc2)cc(-c2ccccc2O)n1`, for which the half-maximal activity concentration (AC50) is 17.7 µM. In the case of `CC(=O)c1c(C)[nH]c(C(=O)OCCCCN2C(=O)c3ccccc3C2=O)c1C`, the AC50 is 6.54 µM. Under `Cc1ccc(-c2nn(-c3ccccc3)cc2/C=N/NC(=O)c2ccc(Br)o2)cc1` stands 0.569 µM; under `CCCCC(=O)NC(c1ccccc1Cl)c1ccc2cccnc2c1O` (stereo not drawn), 2.09 µM.

Turning to `Cc1cccc(NC(=O)/C=C/c2ccc([N+](=O)[O-])s2)c1`, the AC50 is 8.56 µM.

For `CCc1ccc2c(c1)C1(C(=O)N2)N2CCCC2C(C(=O)c2ccc3ccccc3c2)C12C(=O)Nc1ccccc12` (stereo not drawn), the concentration at half-maximal activity (AC50) was 7.76 µM. Take `C=C1C(O)[C@@H]2O[C@]3(CC[C@H](/C=C/C(C)[C@@H]4CC(C)=CC5(O[C@H](C[C@@](C)(O)C(=O)O)CCC5O)O4)O3)CC[C@H]2O[C@@H]1C(O)CC(C)[C@H]1OC2(CCCCO2)CCC1C` (stereo partly drawn): the half-maximal activity concentration (AC50) was less than 0.195 µM. `CC1CC(=O)c2c(cc3c(-c4c(O)cc(O)c5c(O)c6c(cc45)OC(C)CC6=O)c(O)cc(O)c3c2O)O1` (stereo not drawn): the concentration at half-maximal activity (AC50) is 5.1 µM. For `CN(C)CCOc1ccc(-c2c(-c3ccccc3)sc3ccccc23)cc1`, the half-maximal activity concentration (AC50) was 12.8 µM. On to `COC(=O)c1nc(-c2ccc3c(n2)C(=O)C(N)=C(OC)C3=O)c(N)c(-c2ccc(OC)c(OC)c2O)c1C`, for which the AC50 is 6.46 µM. Regarding `O=C(c1cc(-c2cccc(Cl)c2)nc2ccccc12)N1CCN(c2ccccn2)CC1`, the AC50 was 12.4 µM. With `Cc1ccc(-c2cn(-c3ccc(SC(F)F)cc3)c3[n+]2CCC3)cc1` the figure was 5.91 µM. Take `COc1ccccc1C(NC(C)=O)c1cc(Cl)c2cccnc2c1O` (stereo not drawn): the AC50 was 7.24 µM. With `CC(C)c1ccc2c(c1)C(N1CCNCC1)Cc1ccc(F)cc1S2` (stereo not drawn), the half-maximal activity concentration (AC50) is 14.6 µM. Under `CCCCCc1cc(=O)oc2c(C(CCN3CCCC(C)C3)c3cc(OC)c(OC)c(OC)c3)c(OC)cc(OC)c12` (stereo not drawn) stands 14 µM.

Consider `Cc1c(C(C)C)c(=O)n(-c2ccc(S(=O)(=O)NCc3ccccc3)cc2)n1C`, for which the half-maximal activity concentration (AC50) was 3.71 µM. Under `O=C(N/N=C/c1cc([N+](=O)[O-])ccc1O)c1cccc(NC(=O)c2cccc(Cl)c2)c1` stands 5.82 µM; under `CC1CCN(c2ccc(NC(=O)c3ccc([N+](=O)[O-])o3)cc2)CC1`, 10.1 µM; under `Cc1cc(C)c2c(N)c3cccc(C)c3nc2n1`, 7.91 µM. As to `Cc1cc(/C=N/n2cnnc2)c(C)n1-c1ccc(OCc2ccc(Cl)cc2)cc1`, the half-maximal activity concentration (AC50) is 1.26 µM. For the compound `O=C(Oc1c(CN2CCOCC2)cc(Cl)c2cccnc12)c1ccccc1`, the AC50 was 17.1 µM. For `Cn1nccc1C(=O)NC1CCCc2c1cnn2-c1ccc(C(C)(C)C)cc1` (stereo not drawn), the AC50 was 2.11 µM. In the case of `N#C/C(N=Nc1ccccc1O)=N\Nc1ccccc1O`, the half-maximal activity concentration (AC50) is 4.12 µM.

As for `C(#Cc1ccccc1)C[N+]1(CC#Cc2cccc3ccccc23)CCCC1`, the AC50 is 8.17 µM.

For `CCCCC(=O)NC(c1ccco1)c1cc(Cl)c2cccnc2c1O` (stereo not drawn), the half-maximal activity concentration (AC50) was 12.4 µM.

For `Cc1ccc2c(c1)[nH]c1c(N3CCN(Cc4ccccc4)CC3)ncnc12`, the AC50 was 8.07 µM. On to `CCCC(=O)NC(c1ccc(N(C)C)cc1)c1ccc2cccnc2c1O` (stereo not drawn), for which the AC50 was 2.08 µM.

On to `O=C(N/N=C/c1ccccc1)c1c(O)c2ccccc2[nH]c1=O`, for which the half-maximal activity concentration (AC50) is 6.58 µM. As for `COc1ccc(CCNc2ncnc3sccc23)cc1OC`, the concentration at half-maximal activity (AC50) was 1.13 µM. With `CNc1nc(N/N=C/c2cc3c(cc2[N+](=O)[O-])OCO3)nc(Nc2ccccc2)n1`, the AC50 was 14.2 µM. As for `O=C(N/N=C/c1ccc([N+](=O)[O-])s1)C(O)c1ccccc1` (stereo not drawn), the AC50 was 6.99 µM. With `COc1cccc(/C=N/NC(=O)c2cc(-c3ccccn3)nc3ccccc23)c1O`, the AC50 is 7.61 µM. Turning to `Cc1cc(F)ccc1S(=O)(=O)Nc1ccccc1C(=O)Nc1ccccc1-c1nc2ccccc2[nH]1`, the AC50 was 7.72 µM.

On to `O=C(Nc1ccc(N2CCN(C(=O)c3ccc(Cl)cc3)CC2)cc1)c1cccnc1`, for which the AC50 is 18.7 µM. As to `c1ccc(CCNc2ncnc3ccccc23)cc1`, the concentration at half-maximal activity (AC50) is 1.71 µM. Take `CCN(c1ccccc1)S(=O)(=O)c1ccc(NC(=O)c2nc(S(C)(=O)=O)ncc2Cl)cc1`: the AC50 is 8.95 µM. For the compound `O=C(/C(N=Nc1cccc([N+](=O)[O-])c1)=C(/O)c1ccc(Br)cc1)C(F)(F)F`, the half-maximal activity concentration (AC50) is 6.66 µM. As for `COc1ccc(S(=O)(=O)N(C(=O)c2ccco2)c2cc3sc(=O)oc3c3ccccc23)cc1`, the AC50 is 14.5 µM. Take `CCC(=O)NC(c1ccc(Cl)cc1Cl)c1ccc2cccnc2c1O` (stereo not drawn): the AC50 is 2.34 µM. Under `NC(N)=NC(N)=Nc1ccc(SC(F)(F)F)cc1` stands 2.76 µM; under `CCCCCn1c(=O)c(C(=O)Nc2nc3ccccc3[nH]2)c(O)c2ccccc21`, 7.03 µM. For the compound `Cc1sc2ncnc(N3CCN(CCOc4ccc(Cl)cc4)CC3)c2c1C`, the half-maximal activity concentration (AC50) is 4.74 µM. Take `O=c1c2ccccc2nc(N/N=C/c2c(O)ccc3ccccc23)n1O`: the AC50 was 3.65 µM. With `O=C(Nc1ccc([N+](=O)[O-])cc1)Nc1ccc(Cl)cc1F` the figure was 6.71 µM; with `CC(C)C(=O)NC(c1cccs1)c1cc([N+](=O)[O-])c2cccnc2c1O` (stereo not drawn), 9.51 µM; with `COc1cccc(/C=N/NC(=O)c2c(C)nc3ccc(Cl)cn23)c1O`, 3.81 µM. On to `Cc1ccc(-c2nn(-c3ccccc3)cc2/C=N/NC(=O)c2ccc3c(c2)OCO3)cc1`, for which the concentration at half-maximal activity (AC50) was 5.63 µM. Under `c1ccc(/N=C2\N=C(Nc3ccccn3)c3ccccc32)nc1` stands 5.52 µM; under `CN(C)CC(C(=O)c1ccccc1)c1ccccc1` (stereo not drawn), 11.8 µM; under `CCN(CC)CCOc1ccc2c(c1)C(=NNC(=O)c1ccccn1)c1cc(OCCN(CC)CC)ccc1-2`, 13.8 µM. Regarding `Cc1ccc2nc(NC(=O)c3ccccn3)sc2c1`, the AC50 was 9.36 µM. For the compound `Cc1cc(OCc2nc(-c3ccc(NC(=O)c4cccnc4)cc3)no2)ccc1Cl`, the concentration at half-maximal activity (AC50) is 1.16 µM. Consider `Cc1ccc(-c2c[n+](Cc3ccc(Cl)c(Cl)c3)c3n2CCC3)cc1`, for which the AC50 was 4.72 µM. Consider `Cc1ccccc1NC(=S)N/N=C/c1ccc(O)cc1O`, for which the half-maximal activity concentration (AC50) was 14.6 µM. Consider `Cc1cc(N2CCN(C)CC2)ccc1NC(=O)c1c2c(nc3ccccc13)CCN(Cc1ccccc1)C2`, for which the half-maximal activity concentration (AC50) is 8 µM. In the case of `Cc1cc(C)n(-c2nc(NCCO)c3c4c(sc3n2)CCCC4)n1`, the AC50 was > 26 µM (inactive).

For the compound `NC(=S)N/N=C/c1ccccc1O`, the AC50 was > 26 µM (inactive). As to `COc1ccc2nc(C)cc(SCC(=O)N/N=C/c3ccc(O)cc3O)c2c1`, the AC50 was 17.4 µM. For the compound `O=c1[nH]c(=O)n(-c2ccc(F)cc2)c2c1C(C(F)(F)F)(C(F)(F)F)N=C(c1ccc(F)cc1)N2`, the AC50 was 6.05 µM. Take `CCCCC(CC)CN=C(N)NC(N)=NCCCCCCN=C(N)NC(N)=NCC(CC)CCCC` (stereo not drawn): the concentration at half-maximal activity (AC50) was 2.35 µM. For the compound `O=C(NC(Nc1nc2ccc([N+](=O)[O-])cc2s1)(C(F)(F)F)C(F)(F)F)c1cccnc1`, the AC50 is 2.58 µM.

Regarding `CCc1ccc(OCC(=O)NC(NC(=S)Nc2ccc(C)cc2C)C(Cl)(Cl)Cl)cc1` (stereo not drawn), the AC50 is 11.2 µM. With `Cc1cc(/C=N/n2cnnc2)c(C)n1-c1ccc(OCc2ccccc2F)cc1`, the AC50 is 4.05 µM.

Take `O=[N+]([O-])c1ccc(-[n+]2ccc3ccccc3c2)c([N+](=O)[O-])c1`: the concentration at half-maximal activity (AC50) is 7.89 µM. With `CCOC(=O)c1cnc(-n2nc(C)cc2C)nc1NC1CCCC1`, the concentration at half-maximal activity (AC50) is 2.38 µM.

As to `C=CCNC(=S)N/N=C(\C)c1ccccn1`, the half-maximal activity concentration (AC50) is 1.22 µM. Regarding `CCOc1ccc(Nc2nc(Cc3nnc(SCC(=O)c4ccc(C)c(C)c4)o3)cs2)cc1`, the half-maximal activity concentration (AC50) is 10.6 µM. As for `COc1c(CC=C(C)C)cc(C2CC(=O)c3c(O)cc(O)cc3O2)cc1CC=C(C)C` (stereo not drawn), the AC50 is 4.05 µM. For `COc1ccc(-c2cc(-c3ccccc3)[n+](C)c(-c3ccccc3)c2)cc1`, the AC50 was 4.28 µM.

Take `O=C1/C(=N\S(=O)(=O)c2cccs2)C([n+]2cccc(Cc3ccccc3)c2)=C([O-])c2ccccc21`: the half-maximal activity concentration (AC50) was 7.28 µM.

Turning to `Cc1ccc(S(=O)(=O)Nc2ccc(O)c3ccccc23)c(C)c1`, the AC50 was 13.7 µM. Take `CC(=O)c1c(C)[nH]c(C(=O)OCc2cccc(Cl)c2)c1C`: the concentration at half-maximal activity (AC50) was 25.4 µM. As for `C/C(=N\NC(=O)C(C)Oc1ccc([N+](=O)[O-])cc1)c1ccccn1` (stereo not drawn), the AC50 is 4.2 µM. As for `O=C1C=C(Nc2ccc(O)cc2)C(=O)c2ccccc21`, the AC50 is 13.6 µM. Take `O=C(NCc1cccnc1)/C(=C\c1ccc(-c2ccc(Cl)c(Cl)c2)o1)S(=O)(=O)c1ccccc1`: the AC50 was 4.62 µM. Turning to `COC(=O)C1=C(C)N(Cc2ccccc2)C(=NCc2cccc(C(F)(F)F)c2)N[C@H]1c1cccc(C(F)(F)F)c1`, the concentration at half-maximal activity (AC50) was 7.34 µM. For `Cc1cccc(NC(=S)N/N=C/c2ccc([N+](=O)[O-])s2)c1`, the AC50 was 7.67 µM. As for `CCCCCCn1c2c(c(=N)c3c1CCC3)CCC2`, the AC50 is 1.88 µM. As to `Cc1sc2ncnc(NCC(C)(C)N3CCOCC3)c2c1C`, the concentration at half-maximal activity (AC50) is 6.11 µM.

On to `O=[N+]([O-])c1ccc(O)c(/C=N/Nc2ccccn2)c1`, for which the half-maximal activity concentration (AC50) is 1.84 µM. With `Cc1nnc(N=c2ssnc2Cl)o1`, the concentration at half-maximal activity (AC50) was 13.6 µM. With `CC(C)COCc1ccc(O)c2ncccc12`, the half-maximal activity concentration (AC50) was 8.01 µM.

As to `CC[N+](C)(CC)CCC(c1ccccc1)C1CCCCC1` (stereo not drawn), the AC50 is > 26 µM (inactive). Under `Nc1nonc1-n1nnc(C(=O)N/N=C/c2cc(Cl)ccc2O)c1CN1CCCCCC1` stands 10.5 µM; under `NC(N)=N/N=C/c1cn(-c2ccccc2)nc1-c1cccs1`, 14.2 µM; under `Cc1ccccc1C(=O)Nc1cccc(C(=O)N/N=C/c2cc(Cl)cc([N+](=O)[O-])c2O)c1`, 13.3 µM.

In the case of `Oc1c(C(Nc2ccccn2)c2cccnc2)cc(Cl)c2cccnc12` (stereo not drawn), the AC50 was 7.48 µM.

For the origin of these results see PubChem BioAssay AID463229 (Broad Institute, 2010).
